# Measurements taken from ChEMBL document CHEMBL1201862, “PubChem BioAssay data set” (2004).
# Calls of active or inactive are those of the source.
# Experiments:
# [1] = molecular target: T1, Carboxy-terminal domain RNA polymerase II polypeptide A small phosphatase 1 (Homo sapiens, UniProt Q9GZU7); assay: inhibitors of CTDSP1, concentration-response testing, biochemical assay, absorbance-based, actives from ultra-high-throughput screening (AID 540297); format: functional
# T1 sequence (Q9GZU7 whole entry): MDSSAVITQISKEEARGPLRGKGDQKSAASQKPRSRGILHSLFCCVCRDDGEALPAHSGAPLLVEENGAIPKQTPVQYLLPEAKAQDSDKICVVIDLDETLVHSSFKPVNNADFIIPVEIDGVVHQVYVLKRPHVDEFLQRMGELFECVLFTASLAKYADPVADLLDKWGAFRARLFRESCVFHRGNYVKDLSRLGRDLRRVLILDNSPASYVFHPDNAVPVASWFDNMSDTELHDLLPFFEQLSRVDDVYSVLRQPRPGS
# [2] = molecular target: T2, Long-chain-fatty-acid--AMP ligase FadD28 (Mycobacterium tuberculosis, UniProt P9WQ59); assay: Fluorescence polarization aasay to screen for inhibitors that compete for the binding of FadD28 to a bisubstrate Measured in Biochemical System Using Plate Reader - 2147-01_Inhibitor_Dose_CherryPick_Activity.; format: functional, Mycobacterium tuberculosis H37Rv
# T2 sequence (P9WQ59 whole entry): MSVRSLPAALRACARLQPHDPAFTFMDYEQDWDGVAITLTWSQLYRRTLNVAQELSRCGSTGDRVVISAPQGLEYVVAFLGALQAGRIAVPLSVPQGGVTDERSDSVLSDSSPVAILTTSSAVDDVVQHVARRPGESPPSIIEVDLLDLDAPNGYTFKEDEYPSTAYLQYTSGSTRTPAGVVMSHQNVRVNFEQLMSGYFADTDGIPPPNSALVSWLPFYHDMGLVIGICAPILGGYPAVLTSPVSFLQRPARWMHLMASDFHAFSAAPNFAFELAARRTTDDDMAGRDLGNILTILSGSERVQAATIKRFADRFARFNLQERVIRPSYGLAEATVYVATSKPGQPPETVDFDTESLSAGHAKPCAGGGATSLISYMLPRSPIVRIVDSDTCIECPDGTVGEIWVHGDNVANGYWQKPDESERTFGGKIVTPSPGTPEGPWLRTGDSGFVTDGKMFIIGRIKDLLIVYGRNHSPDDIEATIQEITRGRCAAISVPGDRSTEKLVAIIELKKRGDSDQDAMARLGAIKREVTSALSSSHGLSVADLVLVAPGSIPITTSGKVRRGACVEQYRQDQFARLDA
# [3] = NIH-3T3 fibroblast cytotoxicity, dose response, cytotoxicity control, cell-based, fluorescence, Alamar Blue, secondary assay (AID 2327); format: functional;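 note: NIH-3T3 mouse fibroblasts cultured with fluconazole at 8 µg/mL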
# Cytochrome P450 1A2 = molecular target: T3, Cytochrome P450 1A2 (Homo sapiens, UniProt P05177);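 note: PubChem cytochrome P450 panel assay, CYP1A2 panel member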
# T3 sequence (P05177 whole entry): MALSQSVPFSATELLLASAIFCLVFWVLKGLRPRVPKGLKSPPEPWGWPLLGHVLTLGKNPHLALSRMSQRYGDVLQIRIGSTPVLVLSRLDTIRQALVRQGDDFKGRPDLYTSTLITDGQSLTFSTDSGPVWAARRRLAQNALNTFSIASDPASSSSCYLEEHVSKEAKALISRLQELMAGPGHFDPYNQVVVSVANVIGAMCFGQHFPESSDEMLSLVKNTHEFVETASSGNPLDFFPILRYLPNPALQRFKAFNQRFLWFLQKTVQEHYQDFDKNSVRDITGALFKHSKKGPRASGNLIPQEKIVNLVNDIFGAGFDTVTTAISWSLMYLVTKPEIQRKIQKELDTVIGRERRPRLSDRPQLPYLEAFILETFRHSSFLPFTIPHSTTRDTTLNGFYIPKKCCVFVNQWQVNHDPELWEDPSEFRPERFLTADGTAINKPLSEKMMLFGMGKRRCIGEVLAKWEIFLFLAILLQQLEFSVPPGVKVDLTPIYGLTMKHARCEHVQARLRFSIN
# Cytochrome P450 2C9 = Cytochrome P450 2C9 (Homo sapiens, UniProt P11712)
# [4] = molecular target: T4, Corticotropin-releasing factor receptor 2/Corticotropin-releasing factor-binding protein (Homo sapiens, UniProt P24387+Q13324); assay: activators of CRF receptor 2 with binding protein – uHTS hits, confirmation (AID 602473); format: functional; conditions: read-out: EC50_Mean
# T4 sequence (Q13324 whole entry): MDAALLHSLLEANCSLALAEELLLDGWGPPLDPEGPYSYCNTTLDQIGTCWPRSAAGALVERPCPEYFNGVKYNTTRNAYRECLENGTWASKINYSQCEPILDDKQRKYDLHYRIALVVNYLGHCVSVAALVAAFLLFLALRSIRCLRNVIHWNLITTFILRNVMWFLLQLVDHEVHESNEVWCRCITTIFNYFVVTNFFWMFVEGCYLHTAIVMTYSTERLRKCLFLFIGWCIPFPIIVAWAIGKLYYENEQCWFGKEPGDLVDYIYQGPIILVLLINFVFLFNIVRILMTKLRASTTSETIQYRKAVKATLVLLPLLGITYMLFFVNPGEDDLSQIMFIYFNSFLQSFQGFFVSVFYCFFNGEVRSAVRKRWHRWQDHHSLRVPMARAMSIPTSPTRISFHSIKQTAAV
# T4 sequence (P24387 whole entry): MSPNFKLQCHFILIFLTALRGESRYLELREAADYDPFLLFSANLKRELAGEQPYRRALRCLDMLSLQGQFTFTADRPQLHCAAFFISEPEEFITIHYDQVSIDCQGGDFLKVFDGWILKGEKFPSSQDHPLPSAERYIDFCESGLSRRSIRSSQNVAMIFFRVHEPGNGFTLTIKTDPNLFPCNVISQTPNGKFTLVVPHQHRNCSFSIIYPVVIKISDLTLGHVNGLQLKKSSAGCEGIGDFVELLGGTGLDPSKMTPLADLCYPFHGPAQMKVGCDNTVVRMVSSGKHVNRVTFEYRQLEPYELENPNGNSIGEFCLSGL
# Kallikrein-7 = Kallikrein-7 (Homo sapiens, UniProt P49862); assay: Fluorescence Intensity-based biochemical primary high throughput dose response assay to identify activators of kallikrein-7 (K7) zymogen.
# Leucine aminopeptidase = molecular target: T5, Leucine aminopeptidase (Plasmodium falciparum 3D7, UniProt Q8IL11); assay: P. falciparum M17LAP inhibitors, primary screen, biochemical, fluorogenic H-Leu-NHMec substrate, 1536-well (AID 1619); format: functional
# T5 sequence (Q8IL11 whole entry): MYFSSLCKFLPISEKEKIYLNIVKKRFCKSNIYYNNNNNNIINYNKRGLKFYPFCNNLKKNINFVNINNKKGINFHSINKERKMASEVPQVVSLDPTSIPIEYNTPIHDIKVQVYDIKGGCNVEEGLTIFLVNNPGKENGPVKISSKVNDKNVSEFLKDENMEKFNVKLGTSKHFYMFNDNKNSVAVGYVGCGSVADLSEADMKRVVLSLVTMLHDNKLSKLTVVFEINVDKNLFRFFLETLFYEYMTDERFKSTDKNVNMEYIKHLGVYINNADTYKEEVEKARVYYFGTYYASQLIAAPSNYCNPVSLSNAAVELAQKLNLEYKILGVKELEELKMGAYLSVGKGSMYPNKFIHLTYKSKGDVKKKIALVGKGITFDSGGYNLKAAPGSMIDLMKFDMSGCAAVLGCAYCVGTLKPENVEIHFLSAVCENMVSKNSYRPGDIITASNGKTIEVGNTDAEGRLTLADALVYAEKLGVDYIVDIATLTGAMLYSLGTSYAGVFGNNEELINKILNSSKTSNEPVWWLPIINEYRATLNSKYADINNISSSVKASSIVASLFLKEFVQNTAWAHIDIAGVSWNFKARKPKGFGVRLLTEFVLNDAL
# Aminopeptidase N = molecular target: T6, Aminopeptidase N (Plasmodium falciparum FcB1/Columbia, UniProt O96935); assay: P. falciparum M1AAP inhibitors, biochemical, fluorogenic H-Leu-NHMec substrate, 1536-well (AID 1445); parameters: species or system Plasmodium falciparum 3D7, 3D7
# T6 sequence (O96935 whole entry): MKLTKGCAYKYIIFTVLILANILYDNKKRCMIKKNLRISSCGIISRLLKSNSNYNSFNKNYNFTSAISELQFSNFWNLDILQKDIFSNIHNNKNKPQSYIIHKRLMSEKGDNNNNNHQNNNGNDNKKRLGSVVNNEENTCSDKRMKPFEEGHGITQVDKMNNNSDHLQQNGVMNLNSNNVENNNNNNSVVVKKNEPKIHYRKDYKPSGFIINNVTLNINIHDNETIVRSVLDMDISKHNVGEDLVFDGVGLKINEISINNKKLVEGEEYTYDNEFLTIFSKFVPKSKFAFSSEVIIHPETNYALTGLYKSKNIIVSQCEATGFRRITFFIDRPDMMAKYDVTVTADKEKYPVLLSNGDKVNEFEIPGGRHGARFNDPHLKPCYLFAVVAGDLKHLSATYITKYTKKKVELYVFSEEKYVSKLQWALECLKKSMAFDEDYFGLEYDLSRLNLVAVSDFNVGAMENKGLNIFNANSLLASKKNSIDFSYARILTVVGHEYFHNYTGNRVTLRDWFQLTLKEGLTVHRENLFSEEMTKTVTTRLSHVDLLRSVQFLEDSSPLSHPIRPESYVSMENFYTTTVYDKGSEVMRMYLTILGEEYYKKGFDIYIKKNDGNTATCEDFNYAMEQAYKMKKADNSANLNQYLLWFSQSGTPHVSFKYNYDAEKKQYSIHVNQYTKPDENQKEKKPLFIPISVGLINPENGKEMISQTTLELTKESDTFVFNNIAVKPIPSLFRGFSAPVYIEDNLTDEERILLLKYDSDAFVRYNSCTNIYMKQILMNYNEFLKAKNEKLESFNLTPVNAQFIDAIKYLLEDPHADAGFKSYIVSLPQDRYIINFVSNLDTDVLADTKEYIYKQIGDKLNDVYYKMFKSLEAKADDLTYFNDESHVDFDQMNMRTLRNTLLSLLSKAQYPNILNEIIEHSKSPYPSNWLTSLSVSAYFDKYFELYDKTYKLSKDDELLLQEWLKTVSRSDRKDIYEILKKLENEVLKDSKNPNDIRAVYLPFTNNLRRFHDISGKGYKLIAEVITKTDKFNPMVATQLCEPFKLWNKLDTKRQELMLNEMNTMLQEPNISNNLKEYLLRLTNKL
# [5] = tested on: Streptococcus sp. 'group A'; assay: growth inhibition of control SK(-) GAS strain, dose response, counter-screen for streptokinase expression inhibitor project, luminescence, kanamycin, BacTiterGlo, confirmation (AID 1900); format: functional, organism-based
# Streptokinase A = molecular target: T7, Streptokinase A (Streptococcus pyogenes serotype M1, UniProt P10520); assay: S. pyogenes streptokinase expression inhibitors, potency, dose response, plasminogen activation absorbance, OD405 (AID 1914); format: functional, Streptococcus pyogenes M1 GAS;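 note: secreted streptokinase activity via plasminogen activation per viability signal from cell pellet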
# T7 sequence (P10520 whole entry): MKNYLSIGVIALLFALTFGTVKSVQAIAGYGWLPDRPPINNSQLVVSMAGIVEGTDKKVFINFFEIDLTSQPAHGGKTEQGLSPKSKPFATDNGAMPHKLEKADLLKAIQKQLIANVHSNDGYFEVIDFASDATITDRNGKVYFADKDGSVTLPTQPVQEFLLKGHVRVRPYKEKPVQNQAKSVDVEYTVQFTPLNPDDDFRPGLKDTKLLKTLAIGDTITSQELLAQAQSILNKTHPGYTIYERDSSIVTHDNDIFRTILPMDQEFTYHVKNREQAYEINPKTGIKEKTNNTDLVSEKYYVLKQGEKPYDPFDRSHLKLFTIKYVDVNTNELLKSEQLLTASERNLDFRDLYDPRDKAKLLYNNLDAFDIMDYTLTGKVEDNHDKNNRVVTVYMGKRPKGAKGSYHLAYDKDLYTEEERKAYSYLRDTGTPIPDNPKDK
# Streptococcus = assay: Group A Streptococcus viability loss, dose response, counter-screen for streptokinase expression inhibitor project, luminescence, BacTiterGlo (AID 1915); format: functional, organism-based;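 note: potency for reduction of bacterial viability or growth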
# [6] = Luminescence Cell-Based Dose Retest to Confirm Inhibitors of Cancer Stem Cells. [Related pubchem assays (depositor defined):AID2717, AID2721]; format: functional, Homo sapiens; conditions: Homo sapiens
# [7] = molecular target: T8, Sentrin-specific protease 8 (Homo sapiens, UniProt Q96LD8); format: functional
# T8 sequence (Q96LD8 whole entry): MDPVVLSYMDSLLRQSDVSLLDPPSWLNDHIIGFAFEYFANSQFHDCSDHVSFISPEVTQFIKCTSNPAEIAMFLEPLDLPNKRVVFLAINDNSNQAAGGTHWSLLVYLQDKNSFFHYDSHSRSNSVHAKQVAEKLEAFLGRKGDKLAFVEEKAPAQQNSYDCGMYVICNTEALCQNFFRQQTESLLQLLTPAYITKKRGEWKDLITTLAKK
# Chain of Cytochrome P450 2C9 (P11712 whole entry): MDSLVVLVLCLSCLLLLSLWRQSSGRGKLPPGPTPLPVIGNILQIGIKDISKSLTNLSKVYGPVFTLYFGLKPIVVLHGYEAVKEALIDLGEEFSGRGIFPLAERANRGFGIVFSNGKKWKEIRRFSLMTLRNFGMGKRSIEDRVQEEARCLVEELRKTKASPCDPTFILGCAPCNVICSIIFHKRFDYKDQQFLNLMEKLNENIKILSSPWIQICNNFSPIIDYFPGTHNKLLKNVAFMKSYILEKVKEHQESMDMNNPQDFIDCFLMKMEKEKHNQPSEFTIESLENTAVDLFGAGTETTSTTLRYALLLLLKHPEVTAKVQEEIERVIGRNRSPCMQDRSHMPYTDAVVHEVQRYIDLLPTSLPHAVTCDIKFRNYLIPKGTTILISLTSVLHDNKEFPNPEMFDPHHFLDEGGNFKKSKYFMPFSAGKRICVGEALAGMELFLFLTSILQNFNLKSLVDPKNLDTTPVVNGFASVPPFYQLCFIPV
# Chain of Kallikrein-7 (P49862 whole entry): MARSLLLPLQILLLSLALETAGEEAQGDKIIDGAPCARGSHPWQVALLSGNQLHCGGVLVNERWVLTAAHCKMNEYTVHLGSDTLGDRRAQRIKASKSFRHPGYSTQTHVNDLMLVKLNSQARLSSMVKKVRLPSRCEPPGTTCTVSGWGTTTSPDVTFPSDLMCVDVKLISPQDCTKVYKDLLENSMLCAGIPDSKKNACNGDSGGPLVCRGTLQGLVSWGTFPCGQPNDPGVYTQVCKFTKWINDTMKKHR
SMILES,IC50 [1],AC50 [2],also measured
C=C(C)C(=O)N1CC2(CC(c3cccc(NC(=O)/C=C\C=C/C)c3)=NO2)C[C@H]1C(N)=O (stereo not given in full),9.08 µM (active),,
CC(C)(C)NS(=O)(=O)c1ccc(NC(=O)CS(=O)(=O)Cc2ccccc2)cc1,,> 100 µM (inactive),
CC(C)=C1C(=O)NN(c2ccc(F)c(Cl)c2)C1=O,,> 100 µM (inactive),EC50 [3]: > 160 µM (inactive); AC50 (Cytochrome P450 1A2): 31.6 µM (inconclusive); AC50 (Cytochrome P450 2C9): 20 µM (inconclusive)
O=C(O)c1cc(Cl)ccc1-c1ccc(/C=C/c2cc(C(F)(F)F)nc(O)n2)o1,,> 100 µM (inactive),EC50 [4]: 6.29 µM (active)
NS(=O)(=O)c1ccc(NC(=O)C2Cc3ccccc3CN2C(=O)c2ccco2)cc1 (stereo not given),6.06 µM (active),,
O=C1N=C(Nc2cccnc2)S/C1=C/c1ccc(F)cc1,18.4 µM (active),,
O=C(NC1CC1)C1CCN(S(=O)(=O)c2cc([N+](=O)[O-])ccc2Cl)CC1,2.49 µM (active),,
O=C(NNS(=O)(=O)c1ccc(F)cc1)c1cc(Cl)ccc1O,,> 100 µM (inactive),
COCCn1c(=S)[nH]c2sc3c(c2c1=O)CCC(C)C3 (stereo not given),,53.8 µM (active),
Cc1cc(C=O)c(C)n1-c1cccc(C(=O)O)c1,6.32 µM (active),,
CC(C)OCCOc1ccc2oc(-c3ccco3)cc(=O)c2c1,21.7 µM (active),,EC50 (Kallikrein-7): > 7.72 µM (active)
CCOC(=O)CC1(C)OCC(C[N+]2(C)CCCCC2)O1 (stereo not given),5.57 µM (active),,
CC(=O)NS(=O)(=O)c1ccc(/N=c2\ssc3c2-c2ccc(C)cc2NC3(C)C)cc1,,> 100 µM (inactive),IC50 (Leucine aminopeptidase): 2.6 µM (active); IC50 (Aminopeptidase N): 89.3 µM (active); EC50 [5]: 2.31 µM (active); EC50 (Streptokinase A): > 150 µM (not active); EC50 (Streptococcus): 12.1 µM (active)
Cc1nc2ccccc2n1/N=C/c1ccc([N+](=O)[O-])o1,,,AC50 [6]: 10.9 µM (active); IC50 [7]: 38.4 µM (active)
